Experimental findings from patent US7645903B2, “Use of urea variants as affinity ligands” (GE Healthcare Bio-Sciences AB, priority 2002, dated 2010) are described below.

Where a name gives a salt, the structure may show the parent alone.

The experiment has as its system human Fab of κ-type. The experiment in a line: STD-NMR binding test (saturation transfer difference NMR screening). The arrangement: key to NMR signal, conc 1 / NMR signal, conc 2 / NMR signal, conc 3 / NMR signal, Conc 1 (directed library) / NMR signal, Conc 2 (directed library): 0 no; 1 weak; 2 strong signal. The conditions noted are these: for NMR signal, conc 1: 500 nM protein; for NMR signal, conc 1 / NMR signal, conc 2: 0.5 mM ligand; for NMR signal, conc 2: 100 nM protein; for NMR signal, Conc 2 (directed library): 100 nM antibody; for NMR signal, Conc 1 (directed library): 500 nM antibody. As for the experimental part: All NMR experiments were performed at 298 K on a Bruker Avance 500 MHz spectrometer. The 1D saturation transfer difference method (STD-NMR) was used as screening assay (Mayer M. and Meyer B. 1999. Characterisation of Ligand Binding by Saturation Transfer Difference NMR Spectroscopy. Angew. Chem., Int. Ed. 38: 1784-1788). […] The two spectra are recorded in the same experiment in an interleaved fashion. […] It has been shown that the method is capable of detecting ligands with dissociation constants between 10^−3 and 10^−8 M (Mayer M. and Meyer B. 1999. Characterisation of Ligand Binding by Saturation Transfer Difference NMR Spectroscopy. Angew. Chem, Int. Ed. 38: 1784-1788). The strength of the STD-NMR signal depends upon several factors including protein size, offset and duration of the on-resonance irradiation, the dissociation rate constant and the excess of ligand. The STD-NMR method is advantageous in that the detection limits can be tuned for binding by varying the protein concentration while keeping the ligand concentration constant. Under such conditions, at higher protein concentrations the weak to medium binders are detected, whereas at lower protein concentrations only medium binders are detected. For instance, it has been shown before for another enzyme system that both μM and mM binders were detected at a protein concentration of 35 μM whereas only μM binders were detected at protein concentrations of 1 μM and 100 nM (Peng J. W., Lepre C. A., Fejzo J., Abdul-Manan N. and Moore J. M. 2001, Nuclear Magnetic Resonance-Based Approaches for Lead Generation in Drug Discovery, Methods in Enzymology. 338: 202-230). It should be noted that the signal intensity at one specific protein concentration should not be taken as a direct measure of the binding strength. […] On the other hand the signal of the μM binder became even stronger than before (Peng J. W., Lepre C. A., Fejzo J., Abdul-Manan N. and Moore J. M. 2001, Nuclear Magnetic Resonance-Based Approaches for Lead Generation in Drug Discovery, Methods in Enzymology. 338: 202-230).
Here, three different antibody concentrations were used, namely, 0.5 μM, 100 nM and 20 nM. The antibody used was a human Fab of κ-type. In all cases ligands were tested one-by-one. On-resonance irradiation was set at 0 ppm and off-resonance irradiation was set at 40 ppm. Irradiation time in each scan was 2 s and 16K data points were collected with 1024 scans in total. Compounds for testing were dissolved in DMSOd6 to a concentration of 50 mM and 5 μL of the concentrated ligand solution was added to 495 μL buffer solution. The samples thus consisted of 0.5 mM ligand, 20 mM phosphate buffer, 100 mM NaCl and […] in D2O at pD 7.5, uncorrected reading on pH-meter. Compounds were initially tested for binding with 0.5 μM antibody. Interesting ligands were further tested with protein concentrations of 100 or 20 nM. A one-dimensional ^1H-spectrum was acquired first as reference spectrum and subsequently a saturation transfer difference (STD) spectrum was acquired. Each analysis took 60 minutes on the spectrometer.

`O=C(Cc1ncon1)Nc1ccc(F)cc1F` [AB_0000690, n1-(2,4-difluorophenyl)-2-(1,2,4-oxadiazol-3-yl)acetamide]: the “NMR signal, conc 1” value turned out to be 0.
Still for that read-out and setting: as for `O=C1C=C(Cl)C(=O)N1c1ccccc1` [AB_0000930, 3-chloro-1-phenyl-pyrrole-2,5-dione], the figure is 0.
As to `O=C(c1cccs1)c1cnc2ccccn2c1=O` [AB_0001300, 3-(2-thienylcarbonyl)-4h-pyrido[1,2-a]pyrimidin-4-one], the “NMR signal, conc 2” value is recorded as 0 and the “NMR signal, conc 1” value came to 1.
`O=C(Nc1ccc(F)cc1)Oc1noc(-c2ccccc2)n1` [AB_0000740, 5-phenyl-1,2,4-oxadiazol-3-yl n-(4-fluorophenyl)carbamate]: the “NMR signal, conc 1” value was found to be 0.
For `Cc1cc(C)nc(SCC(=O)Nc2ccc(F)c(Cl)c2)n1` [AB_0000580, n1-(3-chloro-4-fluorophenyl)-2-[(4,6-dimethylpyrimidin-2-yl)thio]acetamide], the “NMR signal, conc 2” value is listed as 0 and the “NMR signal, conc 1” value is recorded as 1.
Consider `O=C1c2ccncc2C(=O)N1c1ccc(Cl)cc1` [AB_0000610, 2-(4-chlorophenyl)-2,3-dihydro-1h-pyrrolo[3,4-c]pyridine-1,3-dione], for which the “NMR signal, conc 1” value is on record as 0.
Consider `CC1=NN(c2cccc(Cl)c2)C(=O)C1` [AB_0000530, 1-(3-chlorophenyl)-3-methyl-2-pyrazolin-5-one], for which the “NMR signal, conc 1” value came out at 0.
As for `FC(F)(F)c1cccc(-n2ccnc2)c1` [AB_0001220, 1-(3-trifluoromethylphenyl)imidazole], the “NMR signal, conc 2” value was 0 and the “NMR signal, conc 1” value was determined as 2.
For `Fc1cc(F)cc(Cc2nc(-c3cccs3)no2)c1` [AB_0001020, 5-(3,5-difluorobenzyl)-3-(2-thienyl)-1,2,4-oxadiazole] the same measures were 0 and 1.
For the molecule `COC(=O)[C@H]1CCCN1C(=O)N(C)c1ccc(Cl)c(Cl)c1` (single isomer, unassigned) [AB_0003290, 1-[(3,4-Dichloro-phenyl)-methyl-carbamoyl]-pyrrolidine-2-carboxylic acid methyl ester (R-isomer)], the “NMR signal, Conc 2 (directed library)” value is given as 2 and the “NMR signal, Conc 1 (directed library)” value was found to be 2.
As to `CC1(C)CC(=O)c2sc(NC(=O)c3cccnc3)nc2C1` [AB_0000750, n-(5,5-dimethyl-7-oxo-4,5,6,7-tetrahydro-benzothiazol-2-yl)-nicotinamide], the “NMR signal, conc 1” value is reported as 0.
`CCn1ccnc1CC1COc2ccccc2O1` (stereo not shown) [AB_0001070, imiloxan hydrochloride]: the “NMR signal, conc 2” value amounted to 1 and the “NMR signal, conc 1” value is on record as 1.
For the molecule `S=C(Oc1ccccn1)c1csc(C2COc3ccccc3O2)n1` (stereo not shown) [AB_0001260, 2-pyridyl 2-(2,3-dihydro-1,4-benzodioxin-2-yl)-1,3-thiazole-4-carbothioate], the “NMR signal, conc 1” value came to 0.
Consider `COC(=O)CCCN(C)C(=O)N(C)c1ccc(Cl)c(Cl)c1` [AB_0001255, 4-[3-(3,4-Dichloro-phenyl)-1,3-dimethyl-ureido]-butyric acid methyl ester], for which the “NMR signal, Conc 2 (directed library)” value came to 2 and the “NMR signal, Conc 1 (directed library)” value stood at 2. The “interaction with the antibody in NMR screening of directed library” value (two higher antibody concentrations) was “strongest binding”.
Take `Clc1ccc(COn2ccnc2)cc1Cl` [AB_0001150, 1-[(3,4-dichlorobenzyl)oxy]-1h-imidazole]: the “NMR signal, conc 2” value is reported as 0 and the “NMR signal, conc 1” value is 2.
As to `O=C1C(=Cc2ccccc2)C(=O)c2ccccc21` [AB_0000730, 2-benzylidene-1,3-indandione], the “NMR signal, conc 1” value is on record as 0.
For `O=C(CC1OC(=O)c2ccccc21)c1ccccn1` (stereo not shown) [AB_0000790, 3-[2-oxo-2-(2-pyridyl)ethyl]-1,3-dihydroisobenzofuran-1-one], the “NMR signal, conc 1” value stood at 0.
On to `OC(CNCc1ccccc1)C(F)(F)F` (stereo not shown) [AB_0001000, 3-(benzylamino)-1,1,1-trifluoro-2-propanol], for which the “NMR signal, conc 2” value is on record as 0 and the “NMR signal, conc 1” value is listed as 1.
Take `O=C1C(=O)N(c2ccccc2)C(=O)N1c1ccccc1` [AB_0000540, 1,3-diphenylparabanic acid]: the “NMR signal, conc 1” value turned out to be 0.
`c1ccc(-c2nnc(-c3ccccn3)nn2)nc1` [AB_0000700, 3,6-di-2-pyridyl-1,2,4,5-tetrazine]: the “NMR signal, conc 1” value amounted to 0.
On to `COC(=O)c1ccc2ccccc2c1O` [AB_0001200, methyl 1-hydroxy-2-naphthoate], for which the “NMR signal, conc 2” value was found to be 0 and the “NMR signal, conc 1” value was determined as 1.
For `O=Cc1cccc(C(F)(F)F)c1Cl` [AB_0001030, 2-chloro-3-(trifluoromethyl)benzaldehyde] the same measures were 0 and 1.
For `OC(CNCc1ccc(Cl)cc1)CSc1ccccc1` (stereo not shown) [AB_0001270, 1-[(4-chlorobenzyl)amino]-3-(phenylthio)propan-2-ol] the same measures were 0 and 1.
For `Sc1nnc(-c2csc(-c3ccccc3)n2)o1` [AB_0000760, 5-(2-phenyl-1,3-thiazol-4-yl)-1,3,4-oxadiazol-2-ylhydrosulfide] the same measures were 0 and 1.
For `c1ccc(CCn2cc(-c3ccncc3)cn2)cc1` [AB_0001190, 4-[1-(2-phenylethyl)-(1h)-pyrazol-4-yl]pyridine], the “NMR signal, conc 2” value was 0 and the “NMR signal, conc 1” value came out at 2.
As to `CSCCNC(=O)c1nc2ccccc2c(=O)n1N` [AB_0001130, 3-amino-n-[2-(methylthio)ethyl]-4-oxo-3,4-dihydroquinazoline-2-carboxamide], the “NMR signal, conc 1” value is 0.
For `O=C1C=CC(=O)N1c1cccc(Cl)c1` [AB_0001090, n-(3-chlorophenyl)-maleimide], the “NMR signal, conc 2” value is on record as 0 and the “NMR signal, conc 1” value is on record as 1.
Regarding `O=C(c1ccccn1)C(O)c1ccccn1` (stereo not drawn) [AB_0000510, alpha-pyridoin], the “NMR signal, conc 1” value is given as 0.
For the molecule `O=C(Cc1ncon1)Nc1ccc(F)c(F)c1F` [AB_0000630, n1-(2,3,4-trifluorophenyl)-2-(1,2,4-oxadiazol-3-yl)acetamide], the “NMR signal, conc 1” value is reported as 0.
In the case of `COC(=O)CCCN(C)C(=O)N(C)c1ccc(F)c(F)c1` [AB_0001258, 4-[3-(3,4-Difluoro-phenyl)-1,3-dimethyl-ureido]-butyric acid methyl ester], the “NMR signal, Conc 2 (directed library)” value is reported as 1 and the “NMR signal, Conc 1 (directed library)” value is 1.
Turning to `OC(CNCc1ccc(Cl)cc1Cl)C(F)(F)F` (stereo not shown) [AB_0001170, 3-[(2,4-dichlorobenzyl)amino]-1,1,1-trifluoro-2-propanol], the “NMR signal, conc 1” value stood at 0.
Still for that read-out and setting: as for `O=C1SC(Br)C(=O)N1c1ccccc1` (stereo not shown) [AB_0000880, 5-bromo-3-phenyl-thiazolidine-2,4-dione], the figure is 0; as for `CCCCc1c(O)nc2ccccn2c1=O` [AB_0000990, 3-butyl-2-hydroxy-4h-pyrido[1,2-a]pyrimidin-4-one], 0.
On the same count and under the same terms, as for `O=C(O)c1ccnn(-c2ccccc2)c1=O` [AB_0001180, 3-oxo-2-phenyl-2,3-dihydro-4-pyridazinecarboxylic acid], the figure is 0; as for `O=C(c1ccc2ccccc2c1)n1ccnc1` [AB_0000900, 1-(2-naphthoyl)imidazole], 0.
Consider `COC(=O)CCCNC(=O)N(C)c1ccc(Cl)c(Cl)c1` [AB_0001257, 4-[3-(3,4-Dichloro-phenyl)-3-methyl-ureido]-butyric acid methyl ester], for which the “NMR signal, Conc 2 (directed library)” value is 0 and the “NMR signal, Conc 1 (directed library)” value was 2.
Take `O=C(COc1ccc2ccccc2c1)ON1C(=O)CCC1=O` [AB_0001230, (2-naphthoxy)acetic acid, n-hydroxysuccinimide ester]: the “NMR signal, conc 1” value turned out to be 0.
